From patent publication US20130184246A1, “METHOD FOR TREATING FATTY LIVER DISEASES, IN PARTICULAR NON-ALCOHOLIC STEATOHEPATITIS” (priority 2010, published 2013)

What was measured:
[1] = system: LDLr−/− mice; test: Plasma lipid analysis, NASH treatment with 27-HC; format: in vivo
Description: (§1) The experimental approach consisted of utilizing low-density (LDL) receptor-deficient mice (LDLr−/−) on a C57B16 background. This mouse model is predisposed to elevated serum cholesterol levels when fed a high-fat diet. On a normal chow diet, these mice have a three-fold increase in cholesterol levels when compared to controls.^(39) The lab determined that two weeks is sufficient for mice to reach a steatotic and inflamed liver state.
Experiments were performed in accordance with Dutch law for animal experimentation and approved by the Committee for Animal Welfare of the University of Maastricht. In this study, the aim was to investigate the ability of 27-hydroxycholesterol (generous gift from Dr. Norman B. Javitt; New York University School of Medicine) to reduce hepatic inflammation and to characterize its potential use as a therapeutic agent for NASH patients. […]
Plasma cholesterol and triglyceride measurements were tested with the enzymatic color tests. […] Absorbance was measured at the 490 nm wavelength with a Benchmark 550 Micro-plate reader. […] Subsequently, 200 μl of reagent A was added, mixed, and after 15 minutes of incubation, read at a wavelength of 545 nm for the initial absorbance. […] The final absorbance was then measured at 545 nm. The concentration of triglycerides was then calculated by subtracting the initial concentrations from the final concentrations. […]

[2] = system: LDLr−/− mice; test: Liver lipid analysis, NASH treatment with 27-HC; format: in vivo
Description: as §1
Experiments were performed in accordance with Dutch law for animal experimentation and approved by the Committee for Animal Welfare of the University of Maastricht. […]
Homogenization of approximately 50 mg of frozen liver tissue was completed at 5000 rpm for 30 seconds with 1.0 mm glass beads along with 1.0 ml SET buffer (sucrose 250 mmol/L, EDTA 2 mmol/L, and Tris 10 mmol/L). […] After adding 200 μl of the reagents (50 parts A, 1 part B) and letting the mixture stand for 30 minutes at 37° C., the absorbance was measured utilizing the enzymatic color test bicinchoninic acid (BCA) method (Pierce, Rockford, Ill.) at a wavelength of 560 nm with a Benchmark 550 Micro-plate reader (170-6750XTU; Bio-Rad, Hercules, Calif.). […]

[3] = system: LDLr−/− mice; test: Steatosis scoring by HE and oil red O staining of liver sections; format: in vivo; details: high-fat diet 27-HC-treated groups
Description: A total of five different experimental groups, ranging from eigtht to nine mice per group, were used to assess the effects of 27-HC. The 27-HC was dissolved in 2-hydroxypropyl-β-cyclodextrin (Sigma-Aldrich GmbH H5784; St. Louis, Mo.) and injected with a concentration of 40 mg of 27-HC per kilogram of body weight via a subcutaneous injection. Mice in Group A received a chow diet and control injections consisting of 2-hydroxypropyl-β-cyclodextrin dissolved in sodium chloride. Group B mice were also on the chow diet but are given daily subcutaneous injections of 27-HC. Group C were the mice that received the high-fat diet (21% fat; 0.2% cholesterol) and control injections. To differentiate between a therapeutic and a regression effect of the 27-HC, the following two groups were set up: a high-fat diet with daily 27-HC injections (Group D) and a high-fat diet group with two weeks of control injections followed by a week of 27-HC injections (Group E). Mice were housed under standard conditions with food and water available ad libidum. […]
Stained sections were scored in a blind manner by a specialized animal pathologist. […] Sections were scored for the quantity of fat droplets and for the foamy appearance of Kupffer cells. […]
To verify the quantification of fat, 7 μm thick frozen sections were stained with oil red O (ORO; O0725; Sigma-Aldrich), the neutral lipid marker. […]

[4] = system: LDLr−/− mice; test: Hepatic inflammation: immunohistochemical staining for infiltrated macrophages (MAC1) and neutrophils (NIMP); format: in vivo; details: vs Group C; for Infiltrated macrophages (MAC1 staining): FIG. 3A
Description: A total of five different experimental groups, ranging from eigtht to nine mice per group, were used to assess the effects of 27-HC. The 27-HC was dissolved in 2-hydroxypropyl-β-cyclodextrin (Sigma-Aldrich GmbH H5784; St. Louis, Mo.) and injected with a concentration of 40 mg of 27-HC per kilogram of body weight via a subcutaneous injection. Mice in Group A received a chow diet and control injections consisting of 2-hydroxypropyl-β-cyclodextrin dissolved in sodium chloride. Group B mice were also on the chow diet but are given daily subcutaneous injections of 27-HC. Group C were the mice that received the high-fat diet (21% fat; 0.2% cholesterol) and control injections. To differentiate between a therapeutic and a regression effect of the 27-HC, the following two groups were set up: a high-fat diet with daily 27-HC injections (Group D) and a high-fat diet group with two weeks of control injections followed by a week of 27-HC injections (Group E). Mice were housed under standard conditions with food and water available ad libidum.
One day previous to the start of the experiment, the mice were weighed and 100-200 μl of blood were collected in a capillary tube after four hours of fasting via an incision in the tail vein. On day 0, the feeding of specialized diets and injections began according to each group. On the 21st day after the start of the experiment, the animals were weighed and fasted for four hours and had another 100-200 μl of blood drawn and collected in a capillary tube via an incision in the tail vein. Afterwards, the mice were sacrificed via cervical dislocation and immediately had their livers removed via a laparotomy consisting of an incision from the pelvis to the rib cage to gain access into the abdomen. […]
Nikon digital camera model DMX1200 and ACT-1 v2.63 software from Nikon Corporation were used to photograph each section. […] The positive cells for each picture were then counted or scored and noted as cells or lipid droplets per square millimeter, respectively.

[5] = system: fibroblasts; test: Incubation of fibroblasts with 27-HC, endolysosomal cholesterol accumulation; format: cell-based
[6] = system: hyperlipidemic LDLR knockout mice; test: HFC diet supplemented with 27-hydroxycholesterol in hyperlipidemic LDLR knockout mice; format: in vivo; details: HFC diet supplemented with 27-hydroxycholesterol 0.1% w/w for three weeks vs HFC diet
Text: To determine whether exogenous 27-HC can reduce hepatic inflammation, hyperlipidemic LDLR knockout mice may be fed either chow, HFC diet or HFC diet supplemented with 27-hydroxycholesterol (0.1% w/w) for three weeks. Then, the mice may be sacrificed and detailed characterization of liver and plasma may be performed.

Structure (SMILES): C[C@@H](CO)CCC[C@@H](C)[C@H]1CC[C@H]2[C@@H]3CC=C4C[C@@H](O)CC[C@]4(C)[C@H]3CC[C@]12C [27-HC, 27-hydroxycholesterol]
- Plasma cholesterol levels ([1]; 27-HC 40 mg/kg s.c. injected groups vs control-injected groups, 3 weeks, FIG. 2A): do not show altered cholesterol levels
- Plasma triglycerides ([1]; Group D: high-fat diet, daily 27-HC 40 mg/kg s.c. for three weeks, vs Groups C and E, FIG. 2B): diminished
- Liver cholesterol levels ([2]; 27-HC 40 mg/kg s.c. injected groups vs control-injected groups, 3 weeks, FIG. 2C): do not show altered cholesterol levels
- Liver triglycerides ([2]; among high-fat diet groups C-E, FIG. 2D): no significant differences
- Steatosis score, HE staining ([3]; FIG. 2E): do not show any statistical significance or trends
- Steatosis score, oil Red O staining ([3]; FIG. 2F): do not show any statistical significance or trends
- Infiltrated macrophages (MAC1 staining) ([4]; Group D: high-fat diet, daily 27-HC for three weeks): significantly decreased
- Neutrophils (NIMP staining) ([4]; Group D: high-fat diet, daily 27-HC for three weeks, FIG. 3B): decreased neutrophils
- Infiltrated macrophages (MAC1 staining) ([4]; Group E: high-fat diet, two weeks control injections then one week 27-HC): significantly decreased
- Endolysosomal cholesterol accumulation [5]: decrease endolysosomal cholesterol accumulation
- Liver and systemic inflammation [6]: reduced liver and systemic inflammation
- Lysosomal cholesterol accumulation [6]: less lysosomal cholesterol accumulation
